# Test results as given in patent US8716478B2, “Boron-containing small molecules” (Anacor Pharmaceuticals, Inc., priority 2010, dated 2014).
# What was measured:
# [1] = test system: Schistosoma mansoni schistosomula; test: Schistosoma mansoni schistosomula phenotypic screen; conditions: First Set
# Text: Puerto Rican isolates of S. mansoni using Biomphalaria glabrata snails and golden hamsters as intermediate and definitive hosts, respectively, were maintained and handled in the University of California-San Francisco Sandler Center for Tropical Medicine. Patent B. glabrata snails (6-8 weeks after exposure to 5-10 infectious miracidia) were induced to shed infective larvae (cercariae) under light stimulus into the surrounding water. Cercariae were washed in rounds of ice-cold water and concentrated through and over sieves of varying pore sizes. They were then mechanically sheared (separation of heads from tails) as described in Colley D G, et al. Exp Parasitol 1974, 35:44-51, in ice-cold Incomplete Medium 169 (as described in Basch P F. J Parasitol 1981, 67:179-185, minus FBS and antibiotics) by passing 15 times through a double headed 22-gauge syringe needle connected to two 10 mL syringes. The resulting cercarial heads (schistosomula) were separated from their tails by swirling in a petri dish. Concentrated schistosomula were added to a sterile 1.5 mL centrifuge tube and allowed to settle over ice. Schistosomula were transferred to a sterile environment and washed 4 times in Incomplete Medium 169 prior to plating.
# Two sets of screening were performed. In the first set, compounds were screened against schistosomula and observations were made at 24 hours, 2 days, 3 days, 4 days, and 6 days. In the second set, compounds were screened against schistosomula with observations at 24 hours, 2 days, 3 days, and 4 days and adult worms at 7 hours, 24 hours, 4 days, and 6 days.
# Plates contain 200 schistosomula/well in […] complete Basch medium and were maintained at 37° C. in a 5% CO2 atmosphere. All compounds were tested in duplicate with at least two experimental replicates. Compounds and control compounds were added to the plates using the Biomek FXp using 96-well disposable tips. Final concentration of DMSO in each well was 0.5%.
# A semi-quantitative and controlled nomenclature for phenotypes that can arise as a result of compound insult to both schistosomula and adults was utilized (Abdulla M H, et al., PLoS Negl Trop Dis 2009, 3:e478). Phenotypes were recorded by visual inspection and on a flexible time basis but at least at 24 h and 4 day time-points in the case of large scale screening. […] To help eliminate bias, two screen analysts scored phenotypes ‘blind’ both to knowledge of the contents of each screening plate and the phenotypes scored by his/her colleague. Upon completing their individual assessments, each analyst's ‘hit sheet’ was then compared to derive a ‘consensus hit sheet’. Discrepancies in analysts' hit sheets were re-evaluated under the microscope to eventually make a consensus hit call.
# Hyper-coiled and coiled represent a verbal description of the visual phenotype as compared to the DMSO control. The + and ++ and +++ means more of the phenotype which preceded it. The − means less of the phenotype which preceded it. Results
# [2] = test system: TNF-α in peripheral blood mononuclear cells (PBMCs); test: TNF-α inhibition in LPS-stimulated peripheral blood mononuclear cells; type: cell-based; conditions: PBMC; PBMCs, LPS 1 μg/mL for 24 h; read-out: Proinflammatory TNF-α IC50
# Procedure: Peripheral blood mononuclear cells (PBMCs) pooled from 10-20 donors were obtained from a local blood bank, ficoll gradient purified, and stored frozen in liquid nitrogen. Cells were thawed and seeded into 96-well plates at 5×10^5 cells/well in RPMI 1640 with 10% heat-inactivated fetal calf serum (MediaTech, Inc, Hearndon, Va., USA), Test articles were evaluated at the indicated concentrations in 150 μL media containing <2% DMSO, final, with stimulant and PBMCs. Cells were stimulated with lipopolysaccharide (LPS, phenol-extract from E. coli, Sigma-Aldrich, St. Louis, Mo.) at 1 μg/mL. Stimulation was with LPS for 24 h to measure TNF-α. Cytokines in supernatants were analyzed with a FACSArray flow cytometer (BD Biosciences, San Jose, Calif., USA) using the BD Cytometric Bead Array (CBA) Flex Set (BD Biosciences). IC50 values were calculated using the four parameter logistic equation.
# TNF-α = test: In vivo TNF-α release in LPS treated mice; set-up: species or system Swiss Webster mice
# Procedure: In vivo TNF-α release was measured in Swiss Webster mice, 10/group. Animals were dosed via oral gavage with drug 1% CMC suspension. Thirty minutes later LPS, 1.5 mg/kg was administered by intraperitoneal injection. Ninety minutes later animals were sacrificed, blood was collected by exsangination and serum prepared for analysis. TNF-α concentration was assessed by ELISA, non-drug treated animals had TNF-α levels 1000-3000 pg/mL. 6-(1-Hydroxy-1,3-dihydrobenzo[c][1,2]oxaborol-5-yloxy)-2-(2-isopropoxyethoxy)nicotinonitrile (D140) and 6-(1-hydroxy-1,3-dihydrobenzo[c][1,2]oxaborol-5-yloxy)-2-(4-oxopentyloxy)nicotinonitrile (D141) are disclosed in U.S. patent application Ser. No. 12/399,015, filed Mar. 5, 2009.
structure (smiles),measurement,setting,value
"COCCNc1ccc(C#N)c(Oc2ccc3c(c2)COB3O)n1 [2-(1-Hydroxy-1,3-dihydro-benzo[c][1,2]oxaborol-5-yloxy)-6-(2-methoxy-ethylamino)-nicotinonitrile]","schistosomula phenotype, 24 h",[1],O+
"N#Cc1ccc(Oc2ccc3c(c2)COB3O)nc1OCC(F)F [2-(2,2-Difluoro-ethoxy)-6-(1-hydroxy-1,3-dihydro-benzo[c][1,2]oxaborol-5-yloxy)-nicotinonitrile]","schistosomula phenotype, 24 h",[1],O+
"CCOc1nc(Oc2ccc3c(c2)COB3O)ccc1C#N [2-Ethoxy-6-(1-hydroxy-1,3-dihydro-benzo[c][1,2]oxaborol-5-yloxy)-nicotinonitrile]","schistosomula phenotype, 24 h",[1],O++
"CC(C)(C)Nc1nc(Oc2ccc3c(c2)COB3O)ccc1C#N [2-tert-butylamino-6-(1-hydroxy-1,3-dihydro-benzo[c][1,2]oxaborol-5-yloxy)-nicotinonitrile]","schistosomula phenotype, 24 h",[1],O (overactive)
"N#Cc1ccc(Oc2ccc3c(c2)COB3O)c(OCC2CC2)c1 [3-(Cyclopropylmethoxy)-4-(1-hydroxy-1,3-dihydrobenzo[c][1,2]oxaborol-5-yloxy)benzonitrile]","schistosomula phenotype, 24 h",[1],O+
same,"schistosomula phenotype, day 6",[1],partial D
"CC(C)OC(=O)c1ccc(Oc2ccc3c(c2)COB3O)c(F)c1 [5-(2-Fluoro-4-isopropyloxycarbonylphenoxy)-1-hydroxy-2,1-benzoxaborole]","schistosomula phenotype, day 6",[1],"O−, R"
"CCOC(=O)c1ccc(Oc2ccc3c(c2)COB3O)c(Oc2cc(C#N)ccn2)c1 [5-[4-Ethoxycarbonyl-2-(4-cyanopyridin-2-yloxy)phenoxy]-1,3-dihydro-1-hydroxy-2,1-benzoxaborole]","schistosomula phenotype, 24 h",[1],O+
"N#Cc1ccc(Oc2ccc3c(c2)COB3O)nc1OCC(F)(F)F [6-(1-Hydroxy-1,3-dihydro-benzo[c][1,2]oxaborol-5-yloxy)-2-(2,2,2-trifluoro-ethoxy)-nicotinonitrile]","schistosomula phenotype, 24 h",[1],O (overactive)
"COCCNc1nc(Oc2ccc3c(c2)COB3O)ccc1C#N [6-(1-Hydroxy-1,3-dihydro-benzo[c][1,2]oxaborol-5-yloxy)-2-(2-methoxy-ethylamino)-nicotinonitrile]","schistosomula phenotype, 24 h",[1],O−
"CC(=O)OCCOc1nc(Oc2ccc3c(c2)COB3O)ccc1C#N [6-(1-Hydroxy-1,3-dihydro-benzo[c][1,2]oxaborol-5-yloxy)-2-(acetyloxyethoxy)-nicotinonitrile]","schistosomula phenotype, 24 h",[1],O++
"CN(CCO)c1nc(Oc2ccc3c(c2)COB3O)ccc1C#N [6-(1-Hydroxy-1,3-dihydro-benzo[c][1,2]oxaborol-5-yloxy)-2-[(2-hydroxy-ethyl)-methyl-amino]-nicotinonitrile]","schistosomula phenotype, 24 h",[1],O−
same,"schistosomula phenotype, day 3",[1]; day 3,O−
same,"schistosomula phenotype, day 6",[1],R O
"CC(C)Oc1nc(Oc2ccc3c(c2)COB3O)ccc1C#N [6-(1-Hydroxy-1,3-dihydro-benzo[c][1,2]oxaborol-5-yloxy)-2-isopropoxy-nicotinonitrile]","schistosomula phenotype, 24 h",[1],O+
"CCCOc1nc(Oc2ccc3c(c2)COB3O)ccc1C#N [6-(1-Hydroxy-1,3-dihydro-benzo[c][1,2]oxaborol-5-yloxy)-2-propoxy-nicotinonitrile]","schistosomula phenotype, 24 h",[1],O+
"N#Cc1ccc(Oc2ccc3c(c2)COB3O)nc1N1CCCC1 [6-(1-Hydroxy-1,3-dihydro-benzo[c][1,2]oxaborol-5-yloxy)-2-pyrrolidin-1-yl-nicotinonitrile]","schistosomula phenotype, 24 h",[1],O+
"N#Cc1ccc(Oc2ccc3c(c2)COB3O)nc1NCCO [6-(1-hydroxy-1,3-dihydro-benzo[c][1,2]oxaborol-5-yloxy)-2-(2-hydroxy-ethylamino)-nicotinonitrile]","schistosomula phenotype, 24 h",[1],O−
same,"schistosomula phenotype, day 6",[1],O+ R
"COCCN(C)c1nc(Oc2ccc3c(c2)COB3O)ccc1C#N [6-(1-hydroxy-1,3-dihydro-benzo[c][1,2]oxaborol-5-yloxy)-2-[(2-methoxy-ethyl)-methyl-amino]-nicotinonitrile]","schistosomula phenotype, 24 h",[1],O+
"N#Cc1cc(Cl)c(Oc2ccc3c(c2)COB3O)nc1OCCCC1(O)CC1 [Compound D233, 5-Chloro-6-(1-hydroxy-1,3-dihydrobenzo[c][1,2]oxaborol-5-yloxy)-2-(3-(1-hydroxycyclopropyl)propoxy)nicotinonitrile]",IC50,[2],13 nM
"CCC(=O)CCCOc1nc(Oc2ccc3c(c2)COB3O)c(Cl)cc1C#N [Compound D234, 5-chloro-6-(1-hydroxy-1,3-dihydrobenzo[c][1,2]oxaborol-5-yloxy)-2-(4-oxohexyloxy)nicotinonitrile]",IC50,[2],2.1 nM
"CCOC(=O)c1ccc(Oc2ccc3c(c2)COB3O)nc1OCC [Ethyl 2-ethoxy-6-(1-hydroxy-1,3-dihydrobenzo[c][1,2]oxaborol-5-yloxy)nicotinate]","schistosomula phenotype, 24 h",[1],O+
"CCOC(=O)c1cnc(Oc2ccc3c(c2)COB3O)c(Cl)c1 [Ethyl 5-chloro-6-(1-hydroxy-1,3-dihydrobenzo[c][1,2]oxaborol-5-yloxy)nicotinate]","schistosomula phenotype, 24 h",[1],O++
"CC(C)OC(=O)c1ccc(Oc2ccc3c(c2)COB3O)nc1 [Isopropyl 6-(1-hydroxy-1,3-dihydrobenzo[c][1,2]oxaborol-5-yloxy)nicotinate]","schistosomula phenotype, 24 h",[1],O+
"CC(=O)NCc1ccc(Oc2ccc3c(c2)COB3O)cc1 [N-[4-(1-Hydroxy-1,3-dihydro-benzo[c][1,2]oxaborol-5-yloxy)-benzyl]-acetamide]","schistosomula phenotype, day 4",[1]; day 4,D (dead)
C[C@]12C=CC(=O)C=C1CC[C@@H]1[C@@H]2[C@@H](O)C[C@@]2(C)[C@H]1CC[C@]2(O)C(=O)CO [Prednisolone],% Inhibition of TNFa Blood Levels in LPS Treated Mice,TNF-α; Oral Dose 0.01 mg/kg,16%
same,% Inhibition of TNFa Blood Levels in LPS Treated Mice,TNF-α; Oral Dose 0.1 mg/kg,54.3%
same,% Inhibition of TNFa Blood Levels in LPS Treated Mice,TNF-α; Oral Dose 3 mg/kg,81.6%
same,% Inhibition of TNFa Blood Levels in LPS Treated Mice,TNF-α; Oral Dose 10 mg/kg,84.5%
same,% Inhibition of TNFa Blood Levels in LPS Treated Mice,TNF-α; Oral Dose 100 mg/kg,85.9%
O=C(Nc1c(Cl)cncc1Cl)c1ccc(OC(F)F)c(OCC2CC2)c1 [Roflumilast],% Inhibition of TNFa Blood Levels in LPS Treated Mice,TNF-α; Oral Dose 0.3 mg/kg,0%
same,% Inhibition of TNFa Blood Levels in LPS Treated Mice,TNF-α; Oral Dose 1 mg/kg,24.9%
same,% Inhibition of TNFa Blood Levels in LPS Treated Mice,TNF-α; Oral Dose 3 mg/kg,52.5%
same,% Inhibition of TNFa Blood Levels in LPS Treated Mice,TNF-α; Oral Dose 10 mg/kg,71.5%
same,% Inhibition of TNFa Blood Levels in LPS Treated Mice,TNF-α; Oral Dose 30 mg/kg,73.5%
COc1ccc(C2CNC(=O)C2)cc1OC1CCCC1 (stereo not drawn) [Rolipram],% Inhibition of TNFa Blood Levels in LPS Treated Mice,TNF-α; Oral Dose 10 mg/kg,8.6%
same,% Inhibition of TNFa Blood Levels in LPS Treated Mice,TNF-α; Oral Dose 30 mg/kg,62.7%
"CCCOC(=O)c1ccc(Oc2ccc3c(c2)COB3O)nc1 [n-Propyl 6-(1-hydroxy-1,3-dihydrobenzo[c][1,2]oxaborol-5-yloxy)nicotinate]","schistosomula phenotype, 24 h",[1],O+
